Among the test systems are 786-0 renal; EKVX NSCLC; KM20L2 colon; MOLT-4 leukemia; RXF 393 renal; UACC-257 melanoma; UO-31 renal; CAKI-1 renal; MDA-MB-231 breast; DMS 114 small cell lung; DMS 273 small cell lung.
What all share (assay): NCI-60 cell line screen, 48 h

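1) Cells in 96-well plates. 2) Compound, 48 h, 5 concentrations. 3) Linear interpolation between surrounding doses. 4) Unreached endpoint = highest concentration. GI50: concentration for 50% inhibition of growth. Definition used: TGI = concentration required for complete inhibition of growth.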

We go through eleven compounds from PubChem BioAssay (NCI).

For `COC1CCC(OS(C)(=O)=O)C(CO)O1` (stereo not given), the TGI in the assay on 786-0 renal, in the assay with EKVX NSCLC, with KM20L2 colon, in the assay on MOLT-4 leukemia, in the assay with RXF 393 renal and with UACC-257 melanoma was greater than 100 µM in each case. Also, the TGI in the assay with UO-31 renal is greater than 100 µM.

For the compound `COc1cc2c(cc1OC(C)C)[C@H](c1ccc(Cl)cc1)N(c1ccc(N(C)CC3CCC(N4CCN(C)C(=O)C4)CC3)cc1)C(=O)C2` (stereo not given in full), the GI50 in the assay with 786-0 renal was 2.85 µM; with CAKI-1 renal, 0.345 µM; in the assay on EKVX NSCLC it was 1.93 µM; in the assay with MDA-MB-231 breast it was 2.04 µM; in the assay with MOLT-4 leukemia, 0.363 µM; in the assay on RXF 393 renal, 2.66 µM. Also, the GI50 in the assay on UACC-257 melanoma was 1.4 µM; in the assay with UO-31 renal, 0.305 µM. In addition, the TGI in the assay on 786-0 renal worked out at 8.73 µM; in the assay on CAKI-1 renal, 4.99 µM; with EKVX NSCLC, 7.81 µM; with MDA-MB-231 breast, 4.02 µM; in the assay on MOLT-4 leukemia, 5.77 µM; with RXF 393 renal, 7.92 µM. In addition, the TGI was found to be 6.92 µM in the assay on UACC-257 melanoma and 2.22 µM in the assay with UO-31 renal.

In the case of `Nc1nc(/C=C\c2ccc([N+](=O)[O-])s2)nc(N2CCN(c3ccccc3)CC2)n1`, the GI50 in the assay on 786-0 renal was 24.2 µM; in the assay on CAKI-1 renal it was 18.1 µM; in the assay on EKVX NSCLC it was 32.2 µM; with MDA-MB-231 breast it was 13 µM; in the assay on MOLT-4 leukemia, 23.1 µM; in the assay on RXF 393 renal, 18.6 µM. Also, the GI50 in the assay on UACC-257 melanoma was 20.8 µM; with UO-31 renal, 18.7 µM. The TGI is 48.7 µM in the assay with 786-0 renal; 39.1 µM in the assay on CAKI-1 renal; greater than 100 µM with EKVX NSCLC; 29.6 µM in the assay on MDA-MB-231 breast; 75.3 µM with MOLT-4 leukemia; 37.2 µM in the assay with RXF 393 renal. The TGI with UACC-257 melanoma is 44.2 µM; in the assay on UO-31 renal it was 43.7 µM.

Take `CCN(CC)CCCNc1nccc2c(C)c3c(cc12)c1cnccc1n3C`: the TGI worked out at 1.2 µM in the assay with 786-0 renal; 1.03 µM in the assay with CAKI-1 renal; 0.463 µM in the assay with DMS 114 small cell lung; 0.181 µM in the assay on DMS 273 small cell lung; 1.52 µM with EKVX NSCLC; 1.93 µM in the assay with KM20L2 colon. Also, in the assay on UO-31 renal, the TGI came to 2.32 µM.

`O=C1Nc2c(ccc(Cl)c2Cl)/C1=C/c1cc(Br)c(O)c(Br)c1`: the GI50 is 6.62 µM with 786-0 renal; 2.59 µM in the assay on CAKI-1 renal; 4.54 µM in the assay with EKVX NSCLC; 6.81 µM in the assay with MDA-MB-231 breast; 4.37 µM with MOLT-4 leukemia; 7.32 µM in the assay on RXF 393 renal. The GI50 was 6.19 µM in the assay with UACC-257 melanoma and 14.5 µM in the assay on UO-31 renal. In addition, the TGI in the assay on 786-0 renal is 78.7 µM; in the assay with CAKI-1 renal, greater than 37 µM; with EKVX NSCLC, 97.3 µM; with MDA-MB-231 breast, 49.6 µM; with MOLT-4 leukemia, greater than 76.4 µM; with RXF 393 renal, 35.2 µM. The TGI with UACC-257 melanoma was 26.6 µM; in the assay on UO-31 renal it was greater than 49.7 µM.

In the case of `NNC(=O)C(=O)N/N=C(\CCCC(=O)Nc1ccc(Cl)cc1)CC(=O)c1ccc(F)cc1`, the TGI in the assay on 786-0 renal, in the assay with DMS 114 small cell lung, in the assay with EKVX NSCLC, in the assay on KM20L2 colon, with MOLT-4 leukemia and with RXF 393 renal was greater than 100 µM each time. The TGI in the assay on UACC-257 melanoma and in the assay with UO-31 renal was greater than 100 µM each time.

On to `CN(Cc1ccccc1)Cn1ccnc1`, for which the TGI in the assay on 786-0 renal is greater than 100 µM; with CAKI-1 renal it was greater than 100 µM; with EKVX NSCLC, greater than 100 µM; with MDA-MB-231 breast it was 98.1 µM; in the assay with MOLT-4 leukemia, greater than 100 µM; with RXF 393 renal, greater than 100 µM. Moreover, the TGI in the assay on UACC-257 melanoma was 47.4 µM; in the assay on UO-31 renal, greater than 100 µM.

As to `Cc1cnc2n1S(=O)(=O)c1cc(C(=O)Nc3cccc4nsnc34)c(Cl)cc1S2`, the GI50 with 786-0 renal was greater than 100 µM; with CAKI-1 renal it was 16.8 µM; in the assay with EKVX NSCLC, 46.8 µM; in the assay with MDA-MB-231 breast it was 12.4 µM; with MOLT-4 leukemia it was 45.1 µM; in the assay with RXF 393 renal, 12.9 µM. The GI50 in the assay with UACC-257 melanoma was 19.1 µM; with UO-31 renal, 22.9 µM. The TGI with 786-0 renal was greater than 100 µM; in the assay on CAKI-1 renal, 30.9 µM; with EKVX NSCLC it was greater than 100 µM; in the assay with MDA-MB-231 breast, 30.3 µM; in the assay with MOLT-4 leukemia, greater than 100 µM; with RXF 393 renal it was 29.4 µM. For the same compound, the figures for the TGI in the assay with UACC-257 melanoma and in the assay with UO-31 renal were 38.3 µM and 51.8 µM, respectively.

Take `O=c1c2c(nc3n1CCS3)[nH]c1cc([N+](=O)[O-])ccc12`: the GI50 is greater than 100 µM in the assay on 786-0 renal; greater than 100 µM with CAKI-1 renal; greater than 100 µM in the assay with EKVX NSCLC; greater than 100 µM in the assay with MDA-MB-231 breast; 81.5 µM with MOLT-4 leukemia; 92.6 µM in the assay on RXF 393 renal. Further, the GI50 in the assay with UACC-257 melanoma and in the assay with UO-31 renal was greater than 100 µM in each case. For the same compound, the TGI with 786-0 renal, in the assay with CAKI-1 renal, in the assay with EKVX NSCLC, in the assay with MDA-MB-231 breast, with MOLT-4 leukemia and in the assay on RXF 393 renal was greater than 100 µM in each case. In addition, the TGI with UACC-257 melanoma and in the assay with UO-31 renal was greater than 100 µM each time.

Regarding `CC(C)(C)C1=CC(=C(P(=O)(O)O)P(=O)(O)O)C=C(C(C)(C)C)C1=O`, the TGI in the assay on 786-0 renal, in the assay on CAKI-1 renal, with DMS 114 small cell lung, with DMS 273 small cell lung, in the assay with EKVX NSCLC and in the assay with KM20L2 colon was greater than 50 µM each time. For the same compound, the TGI in the assay on MOLT-4 leukemia, in the assay on UACC-257 melanoma and in the assay with UO-31 renal was greater than 50 µM throughout.

Take `CC1Cc2c(Cl)ncnc2N(C)c2ccc(Cl)cc21` (stereo not given): the GI50 in the assay on 786-0 renal is 0.321 µM; with CAKI-1 renal it was 0.348 µM; with EKVX NSCLC, 0.299 µM; with MDA-MB-231 breast, 0.274 µM; in the assay on MOLT-4 leukemia it was 0.382 µM; with RXF 393 renal, 0.342 µM. The figures for the GI50 with UACC-257 melanoma and in the assay on UO-31 renal were 0.429 µM and 0.337 µM, respectively. In addition, the TGI was greater than 100 µM in the assay with 786-0 renal; greater than 100 µM in the assay on CAKI-1 renal; 9.73 µM with EKVX NSCLC; 0.691 µM with MDA-MB-231 breast; greater than 100 µM in the assay on MOLT-4 leukemia; 1.46 µM in the assay on RXF 393 renal. The TGI is 78.5 µM with UACC-257 melanoma and greater than 100 µM in the assay on UO-31 renal.
